# Like-named read-outs stand apart in the source and are kept apart here. Marks after values point to notes of the source that are not given here.
# Assays:
# [1] = Toxicity (TOX), rotorod procedure, mice; assay type: in vivo; conditions: mouse, in vivo; IP route in mice (footnote of Table 10); read-out: TD50
# 6 Hz psychomotor seizure = experiment: Minimal clonic seizure (6 Hz) test; assay type: in vivo; conditions: Mice IP; for ED50: Mus musculus, ip
# Text: Like the maximal electroshock (MES) test, the minimal clonic seizure (6 Hz) test is used to assess a compound's efficacy against electrically-induced seizures but uses a lower frequency (6 Hz) and longer duration of stimulation (3 s). Test compounds are pre-administered to mice via ip injection. […] Untreated mice will display seizures characterized by a minimal clonic phase followed by stereotyped, automatistic behaviors described originally as being similar to the aura of human subjects with partial seizures. Animals not displaying this behavior are considered protected (Table 10).
# MES-induced seizures [2] = conditions: Mice IP; from Antiepileptic Drugs, 5th ed., Levy et al., 2002; cited from earlier work
# [3] = system: Metrazol-induced clonic seizures; conditions: Mice IP; from Antiepileptic Drugs, 5th ed., Levy et al., 2002; cited from earlier work
# MES-induced seizures [4] = conditions: Rat PO; from Antiepileptic Drugs, 5th ed., Levy et al., 2002; cited from earlier work
# [5] = system: Metrazol-induced clonic seizures; conditions: Rat PO; from Antiepileptic Drugs, 5th ed., Levy et al., 2002; cited from earlier work
# [6] = system: minimal motor deficit (ataxia, abnormal gait); conditions: Rat PO; from Antiepileptic Drugs, 5th ed., Levy et al., 2002; cited from earlier work
# [7] = biological target: T1, GABAA/α1 (α1β3γ2 GABAA receptors) (Homo sapiens, UniProt P14867+P18507); experiment: Competitive binding assay, [3H]flunitrazepam; conditions: αxβ3γ2, [3H]flunitrazepam competition; read-out: Binding Affinity at GABAA/α1
# T1 construct: expressed in transfected cells
# Summary of the method: (§1)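 Bound ligand was collected on 0.3% polyethyleneimine-pretreated GF/C filters with three ice-cold washes and quantified by liquid scintillation counting; membrane protein was determined against a BSA standard.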
# [8] = biological target: T2, GABAA/α2 (α2β3γ2 GABAA receptors) (Homo sapiens, UniProt P18507+P47869); experiment: Competitive binding assay, [3H]flunitrazepam; conditions: αxβ3γ2, [3H]flunitrazepam competition; read-out: Binding Affinity at GABAA/α2
# T2 construct: expressed in transfected cells
# Summary of the method: as §1
# [9] = biological target: T3, GABAA/α3 (α3β3γ2 GABAA receptors) (Homo sapiens, UniProt P18507+P34903); experiment: Competitive binding assay, [3H]flunitrazepam; conditions: Binding Affinity at GABAA/α3, αxβ3γ2, [3H]flunitrazepam competition
# T3 construct: expressed in transfected cells
# Summary of the method: as §1
# [10] = biological target: T4, GABAA/α4 (α4β3γ2 GABAA receptors) (Homo sapiens, UniProt P18507+P48169); experiment: Competitive binding assay, [3H]flunitrazepam
# T4 construct: expressed in transfected cells
# [11] = biological target: T5, GABAA/α5 (α5β3γ2 GABAA receptors) (Homo sapiens, UniProt P18507+P31644); experiment: Competitive binding assay, [3H]flunitrazepam; conditions: Binding Affinity at GABAA/α5, αxβ3γ2, [3H]flunitrazepam competition
# T5 construct: expressed in transfected cells
# Summary of the method: as §1
# [12] = biological target: T6, GABAA/α6 (α6β3γ2 GABAA receptors) (Homo sapiens, UniProt P18507+Q16445); experiment: Competitive binding assay, [3H]flunitrazepam
# T6 construct: expressed in transfected cells
# Summary of the method: as §1
# GABAA/α1 receptors = GABAA/α1 receptors (Homo sapiens, UniProt P14867+P18507); conditions: Huang et al., J. Med. Chem. 2000, 43, 71-95; cited from earlier work
# GABAA/α2 = GABAA/α2 (Homo sapiens, UniProt P18507+P47869); conditions: Huang et al., J. Med. Chem. 2000, 43, 71-95; cited from earlier work
# GABAA/α3 = GABAA/α3 (Homo sapiens, UniProt P18507+P34903); conditions: Huang et al., J. Med. Chem. 2000, 43, 71-95; cited from earlier work
# GABAA/α5 receptors = GABAA/α5 receptors (Homo sapiens, UniProt P18507+P31644); conditions: Huang et al., J. Med. Chem. 2000, 43, 71-95; cited from earlier work
# MES-induced seizures [13] = experiment: Maximal electroshock test (MES), mice; assay type: in vivo
# [14] = system: Metrazol-induced clonic seizures; experiment: Subcutaneous Metrazol test (scMet), mice; assay type: in vivo
# [15] = system: minimal muscular or neurological impairment; experiment: Toxicity (TOX), rotorod procedure, mice; assay type: in vivo
# MES-induced seizures [16] = experiment: Maximal electroshock test (MES), rats; assay type: in vivo; conditions: Rat PO; for MES, animals protected/tested: 30 mg/kg
# Procedure: (§2) The benzodiazepine derivative compounds selective for GABAa receptor subunits were tested for the ability to suppress seizures in several standard rat and mouse models of epilepsy. […] The standard models incorporated into anticonvulsant screening include the maximal electroshock test (MES), the subcutaneous Metrazol test (scMet), and evaluations of toxicity (TOX). The data for each condition is presented as a ratio of either the number of animals protected or toxic (loss of locomotor activity) over the number of animals tested at a given time point and dose.
# The MES is a model for generalized tonic-clonic seizures and provides an indication of a compound's ability to prevent seizure spread when all neuronal circuits in the brain are maximally active. These seizures are highly reproducible and are electrophysiologically consistent with human seizures. For all tests based on MES convulsions, 60 Hz of alternating current (50 mA in mice, 150 in rats) is delivered for by corneal electrodes which have been primed with an electrolyte solution containing an anesthetic agent (0.5% tetracaine HCL). For Test 1, mice are tested at various intervals following doses of 30, 100 and 300 mg/kg of test compound given by ip injection of a volume of 0.01 mL/g. In Test 2, rats are tested after a dose of 30 mg/kg (po) in a volume of 0.04 mL/g. Test 8 uses varying doses administered via i.p. injection, again in a volume of 0.04 ml/g. […] In Antiepileptic Drugs, Levy, R. H. M., Meldrum, B. S., Eds.; Raven Press: New York, pp 99-110, 1995b.).
# [17] = system: Metrazol-induced clonic seizures; experiment: Subcutaneous Metrazol test (scMet), rats; assay type: in vivo
# Procedure: as §2
# Subcutaneous injection of the convulsant Metrazol produces clonic seizures in laboratory animals. […] Animals are pretreated with various doses of the test compound (in a similar manner to the MES test, although a dose of 50 mg/kg (po) is the standard for Test 2 scMet). At the previously determined TPE of the test compound, the dose of Metrazol which will induce convulsions in 97% of animals (CD97: 85 mg/kg mice) is injected into a loose fold of skin in the midline of the neck. […] An episode of clonic spasms, approximately 3-5 seconds, of the fore and/or hindlimbs, jaws, or vibrissae is taken as the endpoint.
# [18] = Toxicity (TOX), minimal motor deficit, rats; assay type: in vivo; conditions: in vivo; Rat IP
# Procedure: as §2
# (§3) To assess a compound's undesirable side effects (toxicity), animals are monitored for overt signs of impaired neurological or muscular function. […] When a mouse is placed on a rod that rotates at a speed of 6 rpm, the animal can maintain its equilibrium for long periods of time. The animal is considered toxic if it falls off this rotating rod three times during a 1-min period. In rats, minimal motor deficit is indicated by ataxia, which is manifested by an abnormal, uncoordinated gait. Rats used for evaluating toxicity are examined before the test drug is administered, since individual animals may have peculiarities in gait, equilibrium, placing response, etc., which might be attributed erroneously to the test substance.
# [19] = system: minimal motor deficit (ataxia, abnormal gait); experiment: Toxicity (TOX), minimal motor deficit, rats; assay type: in vivo; conditions: Rat PO; for Tox, animals toxic/tested: 50 mg/kg
# Procedure: as §2, §3
# kindled motor seizure = experiment: Hippocampus kindling screen; assay type: in vivo; conditions: Rats IP, 3 mg/kg after 4 h
# Text: The hippocampus kindling screen is a useful adjunct to the traditional MES and scMet tests for identification of a substance potential utility for treating complex partial seizures. […] No toxic effects were observed as indicated by the lack of motor impairment on the rats tested.
# [20] = system: minimal muscular or neurological impairment; conditions: Mice IP; from Antiepileptic Drugs, 5th ed., Levy et al., 2002; cited from earlier work
# [21] = 32 mA, read-out: ED50 32 mA (6 Hz test)
# [22] = Mice, 50 mg/kg PO (Mice IP), 0.5 hr
# [23] = Mice, 50 mg/kg PO (Mice IP), 4.0 hr
compound,measurement,setting,value
O=C1NC(=O)C(c2ccccc2)(c2ccccc2)N1 [Phenytoin],TD50,[1],51 mg/kg
same,ED50,6 Hz psychomotor seizure; [21],> 40 mg/kg
same,ED50 MES,MES-induced seizures [2],5.64 mg/kg
same,ED50 scMet,[3],>50 mg/kg
same,ED50 MES,MES-induced seizures [4],28.1 mg/kg
same,ED50 scMet,[5],>500 mg/kg
same,TD50 TOX,[6],>1000 mg/kg
"C#Cc1ccc2c(c1)C(c1ccccc1)=NCC(=O)N2C [QH-II-066, 1-Methyl-7-acetyleno-5-phenyl-1,3-dihydro-benzo[e]-1,4-diazepin-2-one]",Ki,[7],76.3 nM
same,Ki,[8],42.1 nM
same,Ki,[9],47.4 nM
same,Ki,[10],> 1000 nM
same,Ki,[11],6.8 nM
same,Ki,[12],> 1000 nM
same,Ki,GABAA/α1 receptors,> 70 nM
same,Ki,GABAA/α2,< 50 nM
same,Ki,GABAA/α3,< 50 nM
same,Ki,GABAA/α5 receptors,< 10 nM
"C#Cc1ccc2c(c1)C(c1ccccc1Cl)=NCc1nnc(C)n1-2 [XLi-JY-DMH (23), 8-Acetyleno-5-(2′-chlorophenyl)-1-methyl-4H-s-triazolo-[4,3-a]-1,4-benzodiazepine]","MES, animals protected/tested","MES-induced seizures [13]; Mice IP, 100 mg/kg, 0.5 hr",3/3
same,"MES, animals protected/tested","MES-induced seizures [13]; Mice IP, 100 mg/kg, 4.0 hr",3/3
same,"MES, animals protected/tested",MES-induced seizures [13]; [22],0/4
same,"MES, animals protected/tested",MES-induced seizures [13]; [23],0/4
same,ED50,"MES-induced seizures [13]; Mus musculus, Mice IP",> 6 mg/kg
same,mice protected against scMet induced seizures,"[14]; Mice IP, 100 mg/kg, 0.5 hr",100%
same,"scMet, animals protected/tested","[14]; Mice IP, 100 mg/kg, 0.5 hr",1/1
same,"scMet, animals protected/tested","[14]; Mice IP, 100 mg/kg, 4.0 hr",1/1
same,"scMet, animals protected/tested",[14]; [22],3/4
same,"scMet, animals protected/tested",[14]; [23],2/4
same,ED50,"[14]; Mus musculus, Mice IP",1.03 mg/kg
same,"TOX (Rotorod Test), animals toxic/tested","[15]; Mice IP, 100 mg/kg, 0.5 hr",6/8
same,"TOX (Rotorod Test), animals toxic/tested","[15]; Mice IP, 100 mg/kg, 4.0 hr",2/4
same,TD50 TOX,"[15]; Mice IP, rotorod",2.875 mg/kg
same,"TOX (Rotorod Test), animals toxic/tested",[15]; [22],0/4
same,"TOX (Rotorod Test), animals toxic/tested",[15]; [23],0/4
same,ED50,MES-induced seizures [16],> 150 mg/kg
same,"MES, animals protected/tested",MES-induced seizures [16]; 0.5 h,0/4
same,"MES, animals protected/tested",MES-induced seizures [16]; 1.0 h,0/4
same,"MES, animals protected/tested",MES-induced seizures [16]; 2.0 h,0/4
same,"MES, animals protected/tested",MES-induced seizures [16]; 4.0 h,0/4
same,"MES, animals protected/tested",MES-induced seizures [16]; […],0/4
same,ED50,[17]; Rat IP,4.2 mg/kg
same,ED50,[17]; Rat PO,1.58 mg/kg
same,"scMet, animals protected/tested","[17]; Rat PO, 15 mg/kg, 0.5 h",3/4^c
same,"scMet, animals protected/tested","[17]; Rat PO, 15 mg/kg, 1.0 h",2/4^c
same,"scMet, animals protected/tested","[17]; Rat PO, 15 mg/kg, 2.0 h",4/4^c
same,"scMet, animals protected/tested","[17]; Rat PO, 15 mg/kg, 4.0 h",2/4^c
same,"scMet, animals protected/tested","[17]; Rat PO, 15 mg/kg, […]",3/4^c
same,"scMet, animals protected/tested","[17]; Rat PO, 50 mg/kg, 0.5 h",4/4
same,"scMet, animals protected/tested","[17]; Rat PO, 50 mg/kg, 1.0 h",4/4
same,"scMet, animals protected/tested","[17]; Rat PO, 50 mg/kg, 2.0 h",4/4
same,"scMet, animals protected/tested","[17]; Rat PO, 50 mg/kg, 4.0 h",3/4
same,"scMet, animals protected/tested","[17]; Rat PO, 50 mg/kg, […]",4/4
same,TD50,[18],2.08 mg/kg
same,"Tox, animals toxic/tested",[19]; 0.5 h,0/4
same,"Tox, animals toxic/tested",[19]; 1.0 h,0/4
same,"Tox, animals toxic/tested",[19]; 2.0 h,0/4
same,"Tox, animals toxic/tested",[19]; 4.0 h,0/4
same,"Tox, animals toxic/tested",[19]; […],0/4
same,TD50 TOX,[19]; abnormal gait,166.25 mg/kg
same,"Tox, animals toxic/tested",kindled motor seizure,0/2^c
same,"Afterdischarge Duration, Drug (Low-High)",kindled motor seizure; pre-drug 29-41,29- s
same,ED50,6 Hz psychomotor seizure; [21],0.17 mg/kg
same,ED50,"6 Hz psychomotor seizure; 44 mA, read-out: ED50 44 mA (6 Hz test)",0.4 mg/kg
O=C1CN=C(c2ccccc2Cl)c2cc([N+](=O)[O-])ccc2N1 [Clonazepan],ED50 32 mA (6 Hz test),6 Hz psychomotor seizure; 32 mA,0.04 mg/kg
same,ED50 MES,MES-induced seizures [2],25.6 mg/kg
same,ED50 scMet,[3],0.02 mg/kg
same,TD50 TOX,[20],0.26 mg/kg
same,ED50 MES,MES-induced seizures [4],7.86 mg/kg
same,ED50 scMet,[5],0.61 mg/kg
same,TD50 TOX,[6],2.38 mg/kg
